Measurements: ChEMBL document CHEMBL1201862, “PubChem BioAssay data set” (2004)
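Values below derive from 48-hour exposures of cells grown in 96-well plates, with endpoints linearly interpolated between the two concentrations bracketing the appropriate inhibition level. At the GI50, growth is halved.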 Activity calls are given as the source filed them. No stated cut-off is given here; in the data, active = GI50 up to about 1.1 µM and inactive = higher.

Tests used:
Assay in all cases: NCI tumour cell line growth inhibition, 48 h
[1] = test system: CCRF-CEM
[2] = test system: MDA-MB-231
[3] = test system: SF-295
[4] = test system: MDA-MB-435
[5] = test system: NCI-H522
[6] = test system: K562
[7] = test system: PC-3
[8] = test system: SNB-75
[9] = test system: U-251
[10] = test system: TK-10
[11] = test system: EKVX
[12] = test system: SNB-19
[13] = test system: NCI-H460
[14] = test system: HL-60
[15] = test system: SW-620
[16] = test system: UACC-62
[17] = test system: Hs-578T
[18] = test system: SF-268
[19] = test system: ACHN
[20] = test system: OVCAR-3

Compound | GI50 [1] | GI50 [2] | GI50 [3] | GI50 [4] | GI50 [5] | GI50 [6] | GI50 [7] | GI50 [8] | GI50 [9] | GI50 [10] | GI50 [11] | GI50 [12] | GI50 [13] | GI50 [14] | GI50 [15] | GI50 [16] | GI50 [17] | GI50 [18] | GI50 [19] | GI50 [20]
CC1=C(C(=O)N(C)c2ccc(Cl)c(C(=O)OC(C)C)c2)SCCO1 | > 100 µM (inactive) | > 100 µM (inactive) | 60.1 µM (inactive) | 48.6 µM (inactive) | 44.9 µM (inactive) | 29 µM (inactive) | 38.5 µM (inactive) | 18.7 µM (inactive) | 92.3 µM (inactive) | 84.7 µM (inactive) | 41.8 µM (inactive) | 74.6 µM (inactive) | > 100 µM (inactive) | 33.7 µM (inactive) | > 100 µM (inactive) | 53.1 µM (inactive) | > 100 µM (inactive) | > 100 µM (inactive) | 61.5 µM (inactive) | > 100 µM (inactive)
COC1=C2C[C@](OC)(C#CC=CC#CC2O)CC1(C)C (stereo not given in full) | 34.4 µM (inactive) | > 100 µM (inactive) | > 100 µM (inactive) | > 100 µM (inactive) | > 100 µM (inactive) | 54.8 µM (inactive) | > 100 µM (inactive) | > 100 µM (inactive) | > 100 µM (inactive) | > 100 µM (inactive) | > 100 µM (inactive) | > 100 µM (inactive) | > 100 µM (inactive) | 55 µM (inactive) | > 100 µM (inactive) | 34.6 µM (inactive) | > 100 µM (inactive) | > 100 µM (inactive) | > 100 µM (inactive) | > 100 µM (inactive)
O=[N+]([O-])CC(SCc1ccccc1)c1ccc2c(c1)OCO2 (stereo not given) | 2.54 µM (inactive) | 10.3 µM (inactive) | 7.76 µM (inactive) | 2.5 µM (inactive) | 11.5 µM (inactive) | 1.55 µM (inactive) | 16.8 µM (inactive) | 15.1 µM (inactive) | 6.59 µM (inactive) | 10.8 µM (inactive) | 20.2 µM (inactive) | 14 µM (inactive) | 14.8 µM (inactive) | 1.58 µM (inactive) | 3.81 µM (inactive) | 9.89 µM (inactive) | 6.31 µM (inactive) | 9.4 µM (inactive) | 13.1 µM (inactive) | 6.12 µM (inactive)
CSc1nc2ccccc2c(=O)n1/N=C1\C(=O)N(CN2CCCCC2)c2ccc(Cl)cc21 | 20.6 µM (inactive) | 55.1 µM (inactive) | 37 µM (inactive) | 26.6 µM (inactive) | 12.2 µM (inactive) | 5.22 µM (inactive) | 29.4 µM (inactive) | 19.7 µM (inactive) | 33.3 µM (inactive) | 26.4 µM (inactive) | 14.1 µM (inactive) | 61.5 µM (inactive) | 22.7 µM (inactive) | 10.9 µM (inactive) | 12.5 µM (inactive) | 8.89 µM (inactive) | 37.7 µM (inactive) | 20.1 µM (inactive) | 28.6 µM (inactive) | 59.3 µM (inactive)
O=C1/C(=N\n2c(S)nnc2-c2ccncc2)c2cc(Cl)ccc2N1CN1CCCCC1 | 6.97 µM (inactive) | > 100 µM (inactive) | 94 µM (inactive) | 32.2 µM (inactive) | 13.7 µM (inactive) | 20.5 µM (inactive) | 34.5 µM (inactive) | 34.3 µM (inactive) | 40.4 µM (inactive) | 30.3 µM (inactive) | 4.65 µM (inactive) | 76 µM (inactive) | 36.8 µM (inactive) | 13.1 µM (inactive) | 18.6 µM (inactive) | 34.4 µM (inactive) | 19.8 µM (inactive) | 53.5 µM (inactive) | 50.4 µM (inactive) | 73.8 µM (inactive)
O=[N+]([O-])C(C(Cl)=C(Cl)Cl)=C(N(Cc1ccccc1)Cc1ccccc1)N(Cc1ccccc1)Cc1ccccc1 | 22.2 µM (inactive) | 70.6 µM (inactive) | 27.9 µM (inactive) | 28.2 µM (inactive) | > 100 µM (inactive) | 33.7 µM (inactive) | 53.7 µM (inactive) | > 100 µM (inactive) | > 100 µM (inactive) | > 100 µM (inactive) | 66.7 µM (inactive) | > 100 µM (inactive) | 56.9 µM (inactive) | 17.3 µM (inactive) | > 100 µM (inactive) | > 100 µM (inactive) | > 100 µM (inactive) | > 100 µM (inactive) | 82 µM (inactive) | > 100 µM (inactive)
OCC(S)CS.[Bi] (stereo not given) | 1.25 µM (inactive) | 24.4 µM (inactive) | 48.2 µM (inactive) | 15.2 µM (inactive) | 1.58 µM (inactive) | 5.68 µM (inactive) | 13.1 µM (inactive) | 11.1 µM (inactive) | 15.1 µM (inactive) | 17.8 µM (inactive) | 18 µM (inactive) | 13.7 µM (inactive) | 13.4 µM (inactive) | 16.2 µM (inactive) | 16 µM (inactive) | 17.9 µM (inactive) | 15.9 µM (inactive) | 5.43 µM (inactive) | 16.5 µM (inactive) | 10.8 µM (inactive)
Brc1c2c(c(Br)c3nsnc13)N=S=N2 | 2.65 µM (inactive) | 23.4 µM (inactive) | 27.1 µM (inactive) | 29.7 µM (inactive) | 23.4 µM (inactive) | 10.1 µM (inactive) | 32.7 µM (inactive) | 25.1 µM (inactive) | 23.1 µM (inactive) | 17.4 µM (inactive) | 27.2 µM (inactive) | 26.1 µM (inactive) | 25.3 µM (inactive) | 3.83 µM (inactive) | 29 µM (inactive) | 16.2 µM (inactive) | 21 µM (inactive) | 26.3 µM (inactive) | 24.7 µM (inactive) | 20.9 µM (inactive)
O=C(Cc1ccc(Cl)c(Cl)c1)NCCCN1CCN(CCCN2CCCCC2)CC1 | 16 µM (inactive) | 12 µM (inactive) | 19 µM (inactive) | 1.9 µM (inactive) | 15.7 µM (inactive) | 2.17 µM (inactive) | 18.5 µM (inactive) | 19.5 µM (inactive) | 15.7 µM (inactive) | 17.2 µM (inactive) | 19.2 µM (inactive) | 26.9 µM (inactive) | 16.6 µM (inactive) | 17.8 µM (inactive) | 19.9 µM (inactive) | 3.84 µM (inactive) | 14.1 µM (inactive) | 19.5 µM (inactive) | 27.2 µM (inactive) | 25.5 µM (inactive)
CCOC(=O)n1cncc1CC(NC(=O)Cc1c(C(=O)C=C(C)C)[nH]c2ccccc12)C(=O)OC (stereo not given) | 0.708 µM (active) | 15.5 µM (inactive) | 17.7 µM (inactive) | 18.2 µM (inactive) | 3.56 µM (inactive) | 33.7 µM (inactive) | 17 µM (inactive) | 22.9 µM (inactive) | 19.5 µM (inactive) | 18.2 µM (inactive) | 15.5 µM (inactive) | 14.5 µM (inactive) | 22.3 µM (inactive) | 18 µM (inactive) | 25.7 µM (inactive) | 20.3 µM (inactive) | 19.3 µM (inactive) | 18 µM (inactive) | 19.3 µM (inactive) | 17.7 µM (inactive)
C=CCCCCNC(=O)C[C@@H]1C2=C(CC[C@H]1O[Si](C)(C)C(C)(C)C)N1C(=O)CCC/C=C\C1C2 (stereo not given in full) | 10.6 µM (inactive) | 13.3 µM (inactive) | 14.9 µM (inactive) | 14.6 µM (inactive) | 11.7 µM (inactive) | 5.3 µM (inactive) | 12 µM (inactive) | 16.4 µM (inactive) | 13.5 µM (inactive) | 16.1 µM (inactive) | 17.3 µM (inactive) | 14.4 µM (inactive) | 14.3 µM (inactive) | 1.84 µM (inactive) | 13.6 µM (inactive) | 12.9 µM (inactive) | 16.1 µM (inactive) | 15.5 µM (inactive) | 15.4 µM (inactive) | 14 µM (inactive)
Cc1ccc(-c2c(-c3ccccc3)[nH]c(C)c2C(=O)ONC(=O)c2ccccc2)cc1 | 2.97 µM (inactive) | 3.4 µM (inactive) | 1.93 µM (inactive) | 2.19 µM (inactive) | 2.31 µM (inactive) | 2.55 µM (inactive) | 5.92 µM (inactive) | 1.92 µM (inactive) | 1.84 µM (inactive) | 5.52 µM (inactive) | 7.28 µM (inactive) | 6.38 µM (inactive) | 2.17 µM (inactive) | 0.673 µM (active) | 8.51 µM (inactive) | 10.2 µM (inactive) | 2.01 µM (inactive) | 2.36 µM (inactive) | 1.91 µM (inactive) | 4.49 µM (inactive)
O=C(O)c1cccc2cccc(-c3cccc4cccc(C(=O)O)c34)c12 | > 100 µM (inactive) | > 100 µM (inactive) | > 100 µM (inactive) | > 100 µM (inactive) | > 100 µM (inactive) | > 100 µM (inactive) | > 100 µM (inactive) | > 100 µM (inactive) | > 100 µM (inactive) | > 100 µM (inactive) | > 100 µM (inactive) | > 100 µM (inactive) | > 100 µM (inactive) | > 100 µM (inactive) | > 100 µM (inactive) | > 100 µM (inactive) | > 100 µM (inactive) | > 100 µM (inactive) | > 100 µM (inactive) | > 100 µM (inactive)
NC(=O)c1ncn2c(=O)n(CCCl)nnc12 [MITOZOLOMIDE] | 32.9 µM (inactive) | 220 µM (inactive) | 37.7 µM (inactive) | 170 µM (inactive) | 131 µM (inactive) | 94.4 µM (inactive) | 177 µM (inactive) | 50 µM (inactive) | 40.4 µM (inactive) | 229 µM (inactive) | 197 µM (inactive) | 93.5 µM (inactive) | 50.2 µM (inactive) | 30.8 µM (inactive) | 135 µM (inactive) | 24.7 µM (inactive) | 208 µM (inactive) | 31.6 µM (inactive) | 60.4 µM (inactive) | 205 µM (inactive)
